PubChem BioAssay (NCI)
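Protocol summary: plate cells (96-well), add compound at 5 concentrations, incubate 48 h, interpolate endpoints linearly. TGI is the concentration that stops growth completely.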

Columns and labels:
Test in all cases: NCI anticancer screen, dose series, 48 h
786-0 renal = tested on: 786-0 renal
A498 renal = tested on: A498 renal
A549 NSCLC = tested on: A549 NSCLC
ACHN renal = tested on: ACHN renal
BT-549 breast = tested on: BT-549 breast
CAKI-1 renal = tested on: CAKI-1 renal
CCRF-CEM leukemia = tested on: CCRF-CEM leukemia
COLO 205 colon = tested on: COLO 205 colon
DU-145 prostate = tested on: DU-145 prostate
EKVX NSCLC = tested on: EKVX NSCLC
HCC-2998 colon = tested on: HCC-2998 colon
HCT-116 colon = tested on: HCT-116 colon
HCT-15 colon = tested on: HCT-15 colon
HL-60(TB) leukemia = tested on: HL-60(TB) leukemia
HOP-62 NSCLC = tested on: HOP-62 NSCLC
HOP-92 NSCLC = tested on: HOP-92 NSCLC
HS 578T breast = tested on: HS 578T breast
HT29 colon = tested on: HT29 colon
IGROV1 ovarian = tested on: IGROV1 ovarian
K-562 leukemia = tested on: K-562 leukemia
KM12 colon = tested on: KM12 colon
LOX IMVI melanoma = tested on: LOX IMVI melanoma
M14 melanoma = tested on: M14 melanoma
MALME-3M melanoma = tested on: MALME-3M melanoma
MCF7 breast = tested on: MCF7 breast
MDA-MB-231 breast = tested on: MDA-MB-231 breast
MDA-MB-435 = tested on: MDA-MB-435
MDA-N = tested on: MDA-N
MOLT-4 leukemia = tested on: MOLT-4 leukemia
NCI-H226 lung = tested on: NCI-H226 lung
NCI-H23 lung = tested on: NCI-H23 lung
NCI-H460 lung = tested on: NCI-H460 lung
NCI-H522 lung = tested on: NCI-H522 lung
NCI/ADR-RES ovarian = tested on: NCI/ADR-RES ovarian
OVCAR-3 ovarian = tested on: OVCAR-3 ovarian
OVCAR-4 ovarian = tested on: OVCAR-4 ovarian
OVCAR-5 ovarian = tested on: OVCAR-5 ovarian
OVCAR-8 ovarian = tested on: OVCAR-8 ovarian
PC-3 prostate = tested on: PC-3 prostate
RPMI-8226 leukemia = tested on: RPMI-8226 leukemia
RXF 393 renal = tested on: RXF 393 renal
SF-268 CNS = tested on: SF-268 CNS
SF-295 CNS = tested on: SF-295 CNS
SF-539 CNS = tested on: SF-539 CNS
SK-MEL-2 melanoma = tested on: SK-MEL-2 melanoma
SK-MEL-28 melanoma = tested on: SK-MEL-28 melanoma
SK-MEL-5 melanoma = tested on: SK-MEL-5 melanoma
SK-OV-3 ovarian = tested on: SK-OV-3 ovarian
SN12C renal = tested on: SN12C renal
SNB-19 CNS = tested on: SNB-19 CNS
SNB-75 CNS = tested on: SNB-75 CNS
SR leukemia = tested on: SR leukemia
SW-620 colon = tested on: SW-620 colon
T-47D breast = tested on: T-47D breast
TK-10 renal = tested on: TK-10 renal
U251 CNS = tested on: U251 CNS
UACC-257 melanoma = tested on: UACC-257 melanoma
UACC-62 melanoma = tested on: UACC-62 melanoma
UO-31 renal = tested on: UO-31 renal

[N-]=[N+]=Nc1ccc2c(c1)Sc1ccccc1N2CCCCN1CCN(Cc2ccc(C(=O)c3ccccc3)cc2)CC1
TGI (786-0 renal): > 100 µM | TGI (A498 renal): > 29 µM | TGI (A549 NSCLC): > 100 µM | TGI (ACHN renal): > 100 µM | TGI (BT-549 breast): > 66.1 µM | TGI (CAKI-1 renal): > 65.4 µM | TGI (CCRF-CEM leukemia): > 100 µM | TGI (COLO 205 colon): 3.55 µM | TGI (DU-145 prostate): > 100 µM | TGI (EKVX NSCLC): > 100 µM | TGI (HCC-2998 colon): 3.86 µM | TGI (HCT-116 colon): > 56.8 µM | TGI (HCT-15 colon): > 100 µM | TGI (HL-60(TB) leukemia): 10.1 µM | TGI (HOP-62 NSCLC): > 100 µM | TGI (HOP-92 NSCLC): 11.7 µM | TGI (HS 578T breast): > 100 µM | TGI (HT29 colon): 3.53 µM | TGI (IGROV1 ovarian): > 100 µM | TGI (K-562 leukemia): > 100 µM | TGI (KM12 colon): > 100 µM | TGI (LOX IMVI melanoma): 3.56 µM | TGI (M14 melanoma): 3.95 µM | TGI (MALME-3M melanoma): 4.28 µM | TGI (MCF7 breast): > 23.3 µM | TGI (MDA-MB-231 breast): 33 µM | TGI (MDA-MB-435): > 100 µM | TGI (MDA-N): > 100 µM | TGI (MOLT-4 leukemia): > 100 µM | TGI (NCI-H226 lung): > 100 µM | TGI (NCI-H23 lung): > 80.8 µM | TGI (NCI-H460 lung): > 100 µM | TGI (NCI-H522 lung): 4.43 µM | TGI (NCI/ADR-RES ovarian): > 100 µM | TGI (OVCAR-3 ovarian): > 100 µM | TGI (OVCAR-4 ovarian): > 100 µM | TGI (OVCAR-5 ovarian): > 100 µM | TGI (OVCAR-8 ovarian): > 36.4 µM | TGI (PC-3 prostate): > 100 µM | TGI (RPMI-8226 leukemia): > 100 µM | TGI (RXF 393 renal): 5.37 µM | TGI (SF-268 CNS): > 100 µM | TGI (SF-295 CNS): > 100 µM | TGI (SF-539 CNS): 23.1 µM | TGI (SK-MEL-2 melanoma): 6.86 µM | TGI (SK-MEL-28 melanoma): 3.57 µM | TGI (SK-MEL-5 melanoma): 4.09 µM | TGI (SK-OV-3 ovarian): > 100 µM | TGI (SN12C renal): > 100 µM | TGI (SNB-19 CNS): > 100 µM | TGI (SNB-75 CNS): > 100 µM | TGI (SR leukemia): > 24.3 µM | TGI (SW-620 colon): > 100 µM | TGI (T-47D breast): 22.7 µM | TGI (TK-10 renal): > 96.2 µM | TGI (U251 CNS): > 100 µM | TGI (UACC-257 melanoma): 4.41 µM | TGI (UACC-62 melanoma): 6.1 µM | TGI (UO-31 renal): > 27.9 µM

CC(=NCC(=O)O)c1ccccc1
TGI (786-0 renal): > 100 µM | TGI (A498 renal): > 100 µM | TGI (A549 NSCLC): > 100 µM | TGI (ACHN renal): > 100 µM | TGI (BT-549 breast): > 100 µM | TGI (CAKI-1 renal): > 100 µM | TGI (CCRF-CEM leukemia): > 100 µM | TGI (COLO 205 colon): > 100 µM | TGI (DU-145 prostate): > 100 µM | TGI (EKVX NSCLC): > 100 µM | TGI (HCC-2998 colon): > 100 µM | TGI (HCT-116 colon): > 100 µM | TGI (HCT-15 colon): > 100 µM | TGI (HL-60(TB) leukemia): > 100 µM | TGI (HOP-62 NSCLC): > 100 µM | TGI (HOP-92 NSCLC): > 100 µM | TGI (HS 578T breast): > 100 µM | TGI (HT29 colon): > 100 µM | TGI (IGROV1 ovarian): > 100 µM | TGI (K-562 leukemia): > 100 µM | TGI (KM12 colon): > 100 µM | TGI (LOX IMVI melanoma): > 100 µM | TGI (M14 melanoma): > 100 µM | TGI (MALME-3M melanoma): > 100 µM | TGI (MCF7 breast): > 100 µM | TGI (MDA-MB-231 breast): > 100 µM | TGI (MDA-MB-435): > 100 µM | TGI (MDA-N): > 100 µM | TGI (MOLT-4 leukemia): > 100 µM | TGI (NCI-H226 lung): > 100 µM | TGI (NCI-H23 lung): > 100 µM | TGI (NCI-H460 lung): > 100 µM | TGI (NCI-H522 lung): > 100 µM | TGI (NCI/ADR-RES ovarian): > 100 µM | TGI (OVCAR-3 ovarian): > 100 µM | TGI (OVCAR-4 ovarian): > 100 µM | TGI (OVCAR-5 ovarian): > 100 µM | TGI (OVCAR-8 ovarian): > 100 µM | TGI (PC-3 prostate): > 100 µM | TGI (RPMI-8226 leukemia): > 100 µM | TGI (RXF 393 renal): > 100 µM | TGI (SF-268 CNS): > 100 µM | TGI (SF-295 CNS): > 100 µM | TGI (SF-539 CNS): > 100 µM | TGI (SK-MEL-2 melanoma): > 100 µM | TGI (SK-MEL-28 melanoma): > 100 µM | TGI (SK-MEL-5 melanoma): > 100 µM | TGI (SK-OV-3 ovarian): > 100 µM | TGI (SN12C renal): > 100 µM | TGI (SNB-19 CNS): > 100 µM | TGI (SNB-75 CNS): > 100 µM | TGI (SR leukemia): > 100 µM | TGI (SW-620 colon): > 100 µM | TGI (T-47D breast): > 100 µM | TGI (TK-10 renal): > 100 µM | TGI (U251 CNS): > 100 µM | TGI (UACC-257 melanoma): > 100 µM | TGI (UACC-62 melanoma): > 100 µM | TGI (UO-31 renal): > 100 µM
